Experimental data taken from patent US10526327B2, “Histone demethylase inhibitors” (CELGENE QUANTICEL RESEARCH, INC., priority 2013, dated 2020).

Target: T1, Jarid1A (Homo sapiens, UniProt P29375)
T1 construct: purchased BPS Bioscience 50110
T1 sequence (P29375 1-1090): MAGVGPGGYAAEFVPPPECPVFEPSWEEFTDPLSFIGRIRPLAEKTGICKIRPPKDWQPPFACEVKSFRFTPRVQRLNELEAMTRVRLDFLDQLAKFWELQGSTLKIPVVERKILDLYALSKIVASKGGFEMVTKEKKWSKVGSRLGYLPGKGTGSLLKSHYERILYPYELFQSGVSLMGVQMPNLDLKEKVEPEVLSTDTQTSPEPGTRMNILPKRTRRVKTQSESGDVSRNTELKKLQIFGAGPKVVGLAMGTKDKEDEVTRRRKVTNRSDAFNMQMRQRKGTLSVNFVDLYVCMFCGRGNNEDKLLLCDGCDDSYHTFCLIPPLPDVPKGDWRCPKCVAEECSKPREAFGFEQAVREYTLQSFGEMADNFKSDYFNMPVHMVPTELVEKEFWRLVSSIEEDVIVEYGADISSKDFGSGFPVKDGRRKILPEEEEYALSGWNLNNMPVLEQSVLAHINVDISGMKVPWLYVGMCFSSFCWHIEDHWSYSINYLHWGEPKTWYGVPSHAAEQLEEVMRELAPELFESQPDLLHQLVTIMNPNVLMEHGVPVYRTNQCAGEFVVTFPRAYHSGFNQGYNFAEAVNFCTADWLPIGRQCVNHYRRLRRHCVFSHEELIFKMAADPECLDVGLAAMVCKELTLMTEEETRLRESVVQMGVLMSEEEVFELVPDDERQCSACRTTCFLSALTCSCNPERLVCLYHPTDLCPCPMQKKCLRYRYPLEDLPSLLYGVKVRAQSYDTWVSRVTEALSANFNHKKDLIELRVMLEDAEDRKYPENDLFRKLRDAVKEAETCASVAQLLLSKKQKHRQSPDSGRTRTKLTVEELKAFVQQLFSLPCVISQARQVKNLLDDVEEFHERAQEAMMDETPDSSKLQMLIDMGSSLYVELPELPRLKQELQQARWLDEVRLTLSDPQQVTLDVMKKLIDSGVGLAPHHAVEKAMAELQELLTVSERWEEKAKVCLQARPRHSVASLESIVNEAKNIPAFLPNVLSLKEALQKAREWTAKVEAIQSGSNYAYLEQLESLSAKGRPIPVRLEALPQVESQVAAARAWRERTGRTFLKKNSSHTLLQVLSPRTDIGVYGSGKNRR
Assay: Jarid1A in vitro enzyme inhibition assay (TR-FRET)
Type: biochemical
Method in brief: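 Demethylation of 300 nM biotin-H3K4me3 peptide by 1 nM baculovirus-expressed Jarid1A (aa 1–1090) with 2 μM α-ketoglutarate, Fe(II) and ascorbate, pH 7.3, 30 min at room temperature. Stopped with EDTA; H3K4me1-2 product detected by TR-FRET (Eu anti-H3K4me1-2/streptavidin-APC). IC50 fitted from 665/615 ratio over 11-point dilutions.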

CC(=O)N1CCC[C@H](n2cc(Oc3nc(O)c4ccncc4n3)cn2)C1 [Example 164, 1-[(3S)-3-[4-({4-hydroxypyrido[3,4-d]pyrimidin-2-yl}oxy)-1H-pyrazol-1-yl]piperidin-1-yl]ethan-1-one]
IC50: ≤ 100 nM

O=C(C1CC1)N1CCC[C@H](n2cc(Oc3nc(O)c4ccncc4n3)cn2)C1 [Example 165, 2-({1-[(3S)-1-cyclopropanecarbonylpiperidin-3-yl]-1H-pyrazol-4-yl}oxy)pyrido[3,4-d]pyrimidin-4-ol]
IC50: ≤ 100 nM

N#CCC(=O)N1CCC[C@H](n2cc(Oc3nc(O)c4ccncc4n3)cn2)C1 [Example 166, 3-[(3S)-3-[4-({4-hydroxypyrido[3,4-d]pyrimidin-2-yl}oxy)-1H-pyrazol-1-yl]piperidin-1-yl]-3-oxopropanenitrile]
IC50: ≤ 100 nM

O=C(c1ccccc1)N1CCC[C@H](n2cc(Oc3nc(O)c4ccncc4n3)cn2)C1 [Example 167, 2-({1-[(3S)-1-benzoylpiperidin-3-yl]-1H-pyrazol-4-yl}oxy)pyrido[3,4-d]pyrimidin-4-ol]
IC50: ≤ 100 nM

Oc1nc(Oc2cnn([C@H]3CCCN(Cc4ccccc4)C3)c2)nc2cnccc12 [Example 168, 2-({1-[(3S)-1-benzylpiperidin-3-yl]-1H-pyrazol-4-yl}oxy)pyrido[3,4-d]pyrimidin-4-ol]
IC50: ≤ 100 nM

Oc1nc(OCc2ccc(C(F)(F)F)cc2)nc2cnccc12 [Example 170, 2-{[4-(trifluoromethyl)phenyl]methoxy}pyrido[3,4-d]pyrimidin-4-ol]
IC50: 1000 to 10000 nM

Oc1nc(OCc2ccccc2Cl)nc2cnccc12 [Example 171, 2-[(2-chlorophenyl)methoxy]pyrido[3,4-d]pyrimidin-4-ol]
IC50: 1000 to 10000 nM

Oc1nc(OCc2c(Cl)cccc2Cl)nc2cnccc12 [Example 172, 2-[(2,6-dichlorophenyl)methoxy]pyrido[3,4-d]pyrimidin-4-ol]
IC50: 1000 to 10000 nM

Oc1nc(OCc2cccc(Cl)c2Cl)nc2cnccc12 [Example 173, 2-[(2,3-dichlorophenyl)methoxy]pyrido[3,4-d]pyrimidin-4-ol]
IC50: 1000 to 10000 nM

Oc1nc(OCCc2ccc(Cl)cc2)nc2cnccc12 [Example 174, 2-[2-(4-chlorophenyl)ethoxy]pyrido[3,4-d]pyrimidin-4-ol]
IC50: ≤ 100 nM

Oc1nc(OCCc2ccc(Cl)c(Cl)c2)nc2cnccc12 [Example 175, 2-[2-(3,4-dichlorophenyl)ethoxy]pyrido[3,4-d]pyrimidin-4-ol]
IC50: 1000 to 10000 nM

Oc1nc(OC(c2ccccc2)C(F)(F)F)nc2cnccc12 (stereo not drawn) [Example 176, 2-(2,2,2-trifluoro-1-phenylethoxy)pyrido[3,4-d]pyrimidin-4-ol]
IC50: 1000 to 10000 nM
